Reference: patent US12398151B2, “Sumo inhibitor compounds and uses thereof” (SUVALENT THERAPEUTICS, INC., priority 2019, dated 2025)
Read-outs that look alike come from different tables or passages of the source.

Tests used:
Atg7 = biological target: T1, Atg7 (Homo sapiens, UniProt O95352); assay: Atg7 activating enzyme (E1) inhibition; format: biochemical; conditions: 25 uM compound, 60 min preincubation; read-out: Atg7 percent inhibition of adduct formation
T1 sequence (O95352 1-703): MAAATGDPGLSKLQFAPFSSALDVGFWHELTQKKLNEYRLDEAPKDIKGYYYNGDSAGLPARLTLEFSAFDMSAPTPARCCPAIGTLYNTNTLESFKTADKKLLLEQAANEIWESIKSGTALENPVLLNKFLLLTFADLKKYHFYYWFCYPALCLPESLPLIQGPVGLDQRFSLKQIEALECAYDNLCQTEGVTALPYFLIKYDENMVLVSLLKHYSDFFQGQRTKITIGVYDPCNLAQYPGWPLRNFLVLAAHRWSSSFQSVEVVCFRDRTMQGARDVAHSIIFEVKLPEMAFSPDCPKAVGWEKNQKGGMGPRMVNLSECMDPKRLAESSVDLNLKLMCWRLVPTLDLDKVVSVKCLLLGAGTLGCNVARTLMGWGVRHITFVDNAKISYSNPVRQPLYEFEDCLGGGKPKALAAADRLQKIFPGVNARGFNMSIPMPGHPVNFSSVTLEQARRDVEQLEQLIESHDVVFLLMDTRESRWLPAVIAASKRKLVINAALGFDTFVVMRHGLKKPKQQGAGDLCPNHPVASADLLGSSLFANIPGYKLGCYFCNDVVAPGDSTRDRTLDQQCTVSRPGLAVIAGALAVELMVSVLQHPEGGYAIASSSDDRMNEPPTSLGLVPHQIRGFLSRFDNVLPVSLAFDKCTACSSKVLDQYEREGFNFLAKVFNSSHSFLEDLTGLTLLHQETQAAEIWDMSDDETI
Method: (§1) Compounds are evaluated for their inhibitory effect on activating enzymes (E1) of ubiquitin, SUMO, Nedd8, Urm1, ISG15 or Atg7 using previously reported methods and protocols. One example is in: Allosteric inhibition of ubiquitin-like modifications by a class of inhibitor of SUMO-activating enzyme. Cell Chemical Biology, 26, 1-11, 2019. PMID: 28051857.
(§2) Compounds are tested in the following manner. The compound and SUMO E1 are incubated for a predetermined amount of time. UBC9, SUMO1, and ATP are added to the E1-compound mixture and incubated at 37° C. The reaction is quenched with Laemmli Buffer. The UBC9-SUMO1 conjugation is analyzed via SDS gel electrophoresis. The percent inhibition is measured by the intensity of the UBC9-SUMO1 band compared to the no compound control. Activities are listed as compound concentration (uM), preincubation time of E1 with compound (min), and percent inhibition of adduct formation (%). […]

SUMO E1 = biological target: T2, SUMO E1 (Homo sapiens, UniProt Q9UBT2); assay: SUMO E1 inhibition: UBC9-SUMO1 conjugation by SDS gel electrophoresis; format: biochemical; conditions: read-out: SUMO E1 percent inhibition of adduct formation; for inhibition at 10 µM: 10 uM compound; for inhibition at 9 µM: 9 uM compound; for inhibition at 25 µM: 25 uM compound; for inhibition at 3 µM: 3 uM compound; for inhibition at 27 µM: 27 uM compound
T2 sequence (Q9UBT2 1-640): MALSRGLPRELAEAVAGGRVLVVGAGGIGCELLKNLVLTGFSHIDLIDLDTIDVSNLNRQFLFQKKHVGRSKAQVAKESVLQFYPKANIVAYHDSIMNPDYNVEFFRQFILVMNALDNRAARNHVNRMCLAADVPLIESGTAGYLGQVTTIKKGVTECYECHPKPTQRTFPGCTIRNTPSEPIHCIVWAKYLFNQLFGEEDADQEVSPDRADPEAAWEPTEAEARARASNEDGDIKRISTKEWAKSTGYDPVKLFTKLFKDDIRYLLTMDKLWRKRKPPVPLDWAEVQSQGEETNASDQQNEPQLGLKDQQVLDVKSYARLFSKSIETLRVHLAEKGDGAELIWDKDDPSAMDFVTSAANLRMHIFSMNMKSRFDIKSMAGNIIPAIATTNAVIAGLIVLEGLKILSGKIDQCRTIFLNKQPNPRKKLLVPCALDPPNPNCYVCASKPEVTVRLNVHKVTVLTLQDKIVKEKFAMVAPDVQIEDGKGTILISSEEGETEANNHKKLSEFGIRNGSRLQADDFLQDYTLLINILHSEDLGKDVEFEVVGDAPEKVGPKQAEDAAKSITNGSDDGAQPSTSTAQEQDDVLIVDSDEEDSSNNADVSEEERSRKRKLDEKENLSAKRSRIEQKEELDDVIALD
T2 sequence (Q9UBE0 1-346 partner): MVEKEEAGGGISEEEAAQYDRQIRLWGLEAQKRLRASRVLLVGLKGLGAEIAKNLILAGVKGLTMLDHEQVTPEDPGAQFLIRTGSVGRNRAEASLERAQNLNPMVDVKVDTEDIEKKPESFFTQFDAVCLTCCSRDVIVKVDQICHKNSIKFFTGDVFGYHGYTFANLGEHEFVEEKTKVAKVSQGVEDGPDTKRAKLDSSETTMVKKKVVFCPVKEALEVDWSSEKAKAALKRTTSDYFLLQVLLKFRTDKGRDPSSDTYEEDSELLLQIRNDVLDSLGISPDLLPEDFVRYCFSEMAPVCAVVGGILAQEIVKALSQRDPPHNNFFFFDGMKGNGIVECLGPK
Method: as §1, §2

| Compound | inhibition at 25 µM (Atg7) [%] | inhibition at 25 µM (SUMO E1; 60 min preincubation) [%] | further results |
| --- | --- | --- | --- |
| C=CC(=O)N1Cc2cccc(C)c2[C@@H](c2ccccc2C)C1 [Compound 86] | < 1 | – | inhibition at 10 µM (SUMO E1; 30 min preincubation): < 1% |
| C=CC(=O)N1Cc2sc(Cl)cc2[C@@H]([C@H]2CCCN(C)C2)C1 [Compound 147] | < 1 | – | inhibition at 9 µM (SUMO E1; 30 min preincubation): < 1% |
| Cc1ccccc1[C@H]1CN(C(=O)/C=C/CN(C)C)Cc2sc(Cl)cc21 [Compound 99] | < 1 | – | inhibition at 9 µM (SUMO E1; 20 min preincubation): < 1% |
| C=CC(=O)N1CCc2ncncc2C1 [Compound 5] | < 1 | – | inhibition at 25 µM (SUMO E1; 30 min preincubation): 10% |
| C=CC(=O)N1Cc2sc(Cl)cc2[C@@H](c2ccccc2-c2ccncc2)C1 [Compound 136] | < 1 | – | inhibition at 3 µM (SUMO E1; 30 min preincubation): 100% |
| Cc1ccccc1[C@H]1CN(C(=O)/C=C/c2ccccc2)Cc2sc(Br)cc21 [Compound 90] | < 1 | < 1 | – |
| C=CC(=O)N1Cc2cccc(Br)c2[C@@H](c2ccccc2)C1 [Compound 62] | < 1 | 5 | – |
| C=CC(=O)N1Cc2ccccc2[C@@H](c2cccc(OC)c2)C1 [Compound 35] | < 1 | < 1 | – |
| C/C=C/C(=O)N1Cc2sc(Cl)cc2[C@@H](c2ccccc2C)C1 [Compound 97] | < 1 | – | inhibition at 9 µM (SUMO E1; 30 min preincubation): < 1% |
| C=CC(=O)N1Cc2ccc(Br)cc2[C@@H](c2ccccc2Cl)C1 [Compound 46] | < 1 | – | inhibition at 9 µM (SUMO E1; 30 min preincubation): 50% |
| C=CC(=O)N1Cc2sc(Cl)cc2[C@@H](c2ccccc2)C1 [Compound 73] | < 1 | – | inhibition at 10 µM (SUMO E1; 60 min preincubation): 100% |
| C=CC(=O)N1Cc2c(C)cc(Br)cc2[C@@H](c2ccccc2)C1 [Compound 47] | < 1 | < 1 | – |
| C=CC(=O)N1Cc2cc(Cl)ccc2[C@@H](c2ccc[nH]c2=O)C1 [Compound 94] | < 1 | – | inhibition at 9 µM (SUMO E1; 30 min preincubation): < 1% |
| C=CC(=O)N1Cc2cc(Br)sc2[C@@H](c2ccccc2C)C1 [Compound 111] | < 1 | – | inhibition at 27 µM (SUMO E1; 30 min preincubation): 80% |
| Cc1ccccc1[C@H]1CN(C(=O)c2cccnc2Cl)Cc2sc(Cl)cc21 [Compound 118] | < 1 | – | inhibition at 27 µM (SUMO E1; 30 min preincubation): < 1% |
| Cc1ccccc1[C@H]1CN(C(=O)CBr)Cc2sc(Cl)cc21 [Compound 107] | 100 | – | inhibition at 9 µM (SUMO E1; 30 min preincubation): 100% |
| C=CC(=O)N[C@H]1Cc2ccsc2[C@@H](c2ccccc2C)C1 [Compound 117] | < 1 | – | inhibition at 27 µM (SUMO E1; 30 min preincubation): < 1% |
| C=C(C)C(=O)N1Cc2sc(Cl)cc2[C@@H](c2ccccc2C)C1 [Compound 106] | < 1 | – | inhibition at 27 µM (SUMO E1; 30 min preincubation): < 1% |
| C=CC(=O)N1CCc2cc(Oc3cccc(C)c3)ccc2C1 [Compound 53] | < 1 | < 1 | – |
| C=CC(=O)N1Cc2ccc(Cl)cc2[C@@H](c2ccccc2)C1 [Compound 63] | < 1 | – | inhibition at 10 µM (SUMO E1; 60 min preincubation): 50% |
| Cc1ccccc1[C@H]1CN(C(=O)/C=C/c2ccc(C#N)cc2)Cc2sc(Cl)cc21 [Compound 121] | < 1 | – | inhibition at 27 µM (SUMO E1; 30 min preincubation): < 1% |

| Compound | inhibition at 25 µM (Atg7) [%] | inhibition at 25 µM (SUMO E1; 60 min preincubation) [%] | further results |
| --- | --- | --- | --- |
| C=CC(=O)N1Cc2ccc(Br)cc2[C@@H](c2ccccc2Br)C1 [Compound 55] | < 1 | 50 | – |
| C=CC(=O)N1CCc2ccc(Br)cc2C1 [Compound 2] | < 1 | – | inhibition at 25 µM (SUMO E1; 55 min preincubation of E1 with compound): 50% |
| C=CC(=O)N1Cc2sc(Cl)cc2[C@@H](c2ccccc2C)C1 [Compound 84] | < 1 | – | inhibition at 2.5 µM (SUMO E1; 2.5 uM compound, 30 min preincubation): 90% |
| C=CC(=O)N1Cc2ccccc2C1 [Compound 13] | < 1 | < 1 | – |
| C=CC(=O)N1Cc2cc(OC)ccc2[C@@H](c2ccc(Cl)cc2)C1 [Compound 34] | < 1 | < 1 | – |
| C=CC(=O)N1CCc2cc(Br)ccc21 [Compound 4] | < 1 | – | inhibition at 25 µM (SUMO E1; 30 min preincubation): 10% |
| C=CC(=O)N1Cc2cc(Cl)ccc2[C@@H](c2ccccc2C)C1 [Compound 75] | < 1 | – | inhibition at 10 µM (SUMO E1; 60 min preincubation): 100% |
| C=CC(=O)N1Cc2cccc(Cl)c2[C@@H](c2ccccc2C)C1 [Compound 76] | < 1 | < 1 | – |
| C=CC(=O)N1Cc2ccc(Oc3ccccc3)cc2[C@@H](c2ccccc2)C1 [Compound 30] | < 1 | < 1 | – |
| Cc1cc2c(s1)CN(C(=O)CC#N)C[C@@H]2c1ccccc1 [Compound 95] | < 1 | – | inhibition at 9 µM (SUMO E1; 30 min preincubation): < 1% |
| C=CC(=O)N1Cc2cc(Cl)c(Cl)cc2[C@@H](c2ccccc2)C1 [Compound 100] | < 1 | – | inhibition at 3 µM (SUMO E1; 15 min preincubation): 30% |
| C=CC(=O)N1CCC2CCCCC2C1 (stereo not shown) [Compound 12] | < 1 | < 1 | – |
| C=CC(=O)N1Cc2ccc(Br)cc2[C@@H](c2ccccc2C(F)(F)F)C1 [Compound 57] | < 1 | 90 | – |
| C=CC(=O)N1Cc2cc(OC)ccc2[C@@H](c2ccccc2)C1 [Compound 42] | < 1 | < 1 | – |
| C=CC(=O)N1Cc2sc(Cl)c(F)c2[C@@H](c2ccccc2C)C1 [Compound 150] | < 1 | – | inhibition at 22 µM (SUMO E1; 22 uM compound, 30 min preincubation): 50% |
| C=CC(=O)N1Cc2sc(Cl)cc2[C@@H](c2ccccc2-c2ccccc2)C1 [Compound 133] | < 1 | – | inhibition at 1 µM (SUMO E1; 1 uM compound, 30 min preincubation): 95% |
| C=CC(=O)N1Cc2ccc(OC)cc2[C@@H](c2ccccc2)C1 [Compound 60] | < 1 | 40 | – |
| C=CC(=O)N1Cc2ccccc2[C@@H](c2cccc(O)c2)C1 [Compound 45] | < 1 | < 1 | – |
| C=CC(=O)N1CCCc2cc(Br)ccc21 [Compound 20] | < 1 | < 1 | – |
| C=CC(=O)N1Cc2cc(Br)ccc2[C@@H](c2ccccc2O)C1 [Compound 77] | 30 | 20 | – |
